The record followed here is US20210300940A1 (Merck Patent GmbH, priority 2018, published 2021).

The target in one test is T1, TLR8 (Homo sapiens, UniProt Q9NR97).
T1 construct: expressed in transfected cells; host or cells: HEK/293 reporter cells (NF-kB luciferase)
T1 sequence (Q9NR97 27-1041): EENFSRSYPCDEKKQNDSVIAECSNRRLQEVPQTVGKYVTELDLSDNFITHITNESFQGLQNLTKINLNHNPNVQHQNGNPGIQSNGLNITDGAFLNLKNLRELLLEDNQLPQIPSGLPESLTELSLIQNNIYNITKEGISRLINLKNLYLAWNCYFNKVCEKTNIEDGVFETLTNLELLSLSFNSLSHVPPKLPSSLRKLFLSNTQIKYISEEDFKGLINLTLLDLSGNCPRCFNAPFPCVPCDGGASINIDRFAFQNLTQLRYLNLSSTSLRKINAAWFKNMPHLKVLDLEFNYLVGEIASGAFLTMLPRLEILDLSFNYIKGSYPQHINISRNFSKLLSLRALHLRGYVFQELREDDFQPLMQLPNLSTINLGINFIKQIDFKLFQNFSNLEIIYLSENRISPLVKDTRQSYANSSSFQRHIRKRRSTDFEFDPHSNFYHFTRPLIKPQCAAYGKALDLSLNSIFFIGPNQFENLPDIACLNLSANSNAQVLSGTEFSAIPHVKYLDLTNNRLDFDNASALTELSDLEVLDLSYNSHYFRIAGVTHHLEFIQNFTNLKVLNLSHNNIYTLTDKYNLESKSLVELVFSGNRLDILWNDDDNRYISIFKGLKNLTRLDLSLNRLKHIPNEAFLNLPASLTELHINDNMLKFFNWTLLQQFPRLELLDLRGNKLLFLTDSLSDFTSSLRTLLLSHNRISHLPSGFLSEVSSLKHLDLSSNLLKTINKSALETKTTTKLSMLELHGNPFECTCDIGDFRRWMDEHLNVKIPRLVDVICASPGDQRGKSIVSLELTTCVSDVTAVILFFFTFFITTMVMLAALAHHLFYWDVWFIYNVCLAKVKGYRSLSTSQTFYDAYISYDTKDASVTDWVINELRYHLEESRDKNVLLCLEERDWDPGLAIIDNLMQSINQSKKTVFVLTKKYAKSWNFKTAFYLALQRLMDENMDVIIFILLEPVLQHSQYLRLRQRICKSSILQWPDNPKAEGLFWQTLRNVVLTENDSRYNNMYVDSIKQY
Put plainly: HEK/293 TLR8 Cell Assay. Format: cell-based. Particulars: HEK cells, R848 agonist 30 uM final concentration, Steady-Glo readout; read-out: TLR8 potency.

A further test concerns the target T2, TLR7 (Homo sapiens, UniProt Q9NYK1).
T2 construct: expressed in transfected cells; host or cells: HEK/293 cells carrying TLR7 and an NF-kB luciferase reporter
T2 sequence (Q9NYK1 27-1049): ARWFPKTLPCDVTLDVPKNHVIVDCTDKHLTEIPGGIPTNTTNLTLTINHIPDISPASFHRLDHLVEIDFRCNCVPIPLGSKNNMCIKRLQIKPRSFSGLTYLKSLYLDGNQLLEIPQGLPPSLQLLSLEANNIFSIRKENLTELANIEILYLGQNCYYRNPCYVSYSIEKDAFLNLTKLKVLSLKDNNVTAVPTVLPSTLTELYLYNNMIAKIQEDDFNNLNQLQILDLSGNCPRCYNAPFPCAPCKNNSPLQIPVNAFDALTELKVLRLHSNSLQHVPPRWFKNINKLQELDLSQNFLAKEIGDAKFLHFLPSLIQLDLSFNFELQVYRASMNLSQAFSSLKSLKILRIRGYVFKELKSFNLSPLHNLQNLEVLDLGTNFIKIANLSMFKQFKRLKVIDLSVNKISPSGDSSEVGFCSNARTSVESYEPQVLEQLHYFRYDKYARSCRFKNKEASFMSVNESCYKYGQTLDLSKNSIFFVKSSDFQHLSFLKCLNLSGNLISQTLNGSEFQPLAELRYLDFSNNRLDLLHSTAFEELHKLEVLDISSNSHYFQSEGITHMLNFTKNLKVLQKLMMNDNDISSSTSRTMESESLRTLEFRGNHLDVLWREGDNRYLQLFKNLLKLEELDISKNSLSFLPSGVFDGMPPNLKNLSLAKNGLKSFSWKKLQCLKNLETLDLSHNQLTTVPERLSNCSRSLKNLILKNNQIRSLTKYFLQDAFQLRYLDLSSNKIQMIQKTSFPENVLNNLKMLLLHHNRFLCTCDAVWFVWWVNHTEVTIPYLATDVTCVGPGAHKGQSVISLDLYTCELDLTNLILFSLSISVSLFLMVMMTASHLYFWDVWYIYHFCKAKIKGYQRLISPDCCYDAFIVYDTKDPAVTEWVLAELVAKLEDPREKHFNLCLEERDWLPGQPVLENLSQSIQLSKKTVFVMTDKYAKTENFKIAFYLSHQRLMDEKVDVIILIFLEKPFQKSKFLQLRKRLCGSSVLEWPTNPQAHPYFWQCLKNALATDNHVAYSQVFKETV
Put plainly: HEK/293 TLR7 Cell Assay. Format: cell-based. To be noted: TLR7/NFKb HEK cells, R848 agonist 10 uM final concentration, Steady-Glo readout; read-out: TLR7 potency. The essentials:
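Compounds added to HEK cells expressing TLR7 with an NFκB reporter 30 min ahead of 10 uM R848 challenge; luciferase signal (Steady-Glo) measured after 5 h, cells having been seeded 24 h earlier at 5000 per well.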

Take `C[C@H]1C[C@@H](NC(=O)CC2CCN(CCO)CC2F)CN(c2cnc(C#N)c3ncccc23)C1` (stereo partly drawn) [Example 148, N-[(3R,5S)-1-(8-Cyano-[1,7]naphthyridin-5-yl)-5-methyl-piperidin-3-yl]-2-[3-fluoro-1-(2-hydroxy-ethyl)-piperidin-4-yl]-acetamide]: the IC50 at TLR8 is under 75 nM; at TLR7, 75 to 150 nM.

Take `C[C@H]1C[C@@H](NC(=O)CC2CCN(C(=O)NC(C)(C)CO)CC2F)CN(c2cnc(C#N)c3ncccc23)C1` (stereo partly drawn) [Example 149, 4-{[(3R,5S)-1-(8-Cyano-[1,7]naphthyridin-5-yl)-5-methyl-piperidin-3-ylcarbamoyl]-methyl}-3-fluoro-piperidine-1-carboxylic acid (2-hydroxy-1,1-dimethyl-ethyl)-amide]: the values for the IC50 on TLR8 and on TLR7 were 75 to 150 nM and over 150 nM, respectively.

Consider `C[C@H]1C[C@@H](NC(=O)CN(CCN)CCO)CN(c2ccc(C#N)c3nccnc23)C1` [Example 150, 2-[(2-Amino-ethyl)-(2-hydroxy-ethyl)-amino]-N-[(3R,5S)-1-(8-cyano-quinoxalin-5-yl)-5-methyl-piperidin-3-yl]-acetamide], for which the IC50 at TLR8 and on TLR7 was under 75 nM throughout.

In the case of `COc1ncc(N2C[C@@H](C)C[C@@H](N)C2)c2cccnc12` [Example 151, (3R,5S)-1-(8-Methoxy-[1,7]naphthyridin-5-yl)-5-methyl-piperidin-3-ylamine], the IC50 at TLR8 and on TLR7 was under 75 nM throughout.

`N#Cc1ccc(N2C[C@H](NCC3CCCNC3)C[C@H](C(F)(F)F)C2)c2cccnc12` (stereo partly drawn) [Example 152, 5-{(3R,5S)-3-[(Piperidin-3-ylmethyl)-amino]-5-trifluoromethyl-piperidin-1-yl}-quinoline-8-carbonitrile]: the IC50 at TLR8 and on TLR7 was 75 to 150 nM throughout.

With `C[C@H]1C[C@@H](n2ccnc2)CN(c2ccc(C(F)(F)F)c3nccnc23)C1` [Example 157, 5-[(3R,5S)-3-(1H-imidazol-1-yl)-5-methylpiperidin-1-yl]-8-(trifluoromethyl)quinoxaline], the results for the IC50 on TLR8 and on TLR7 were under 75 nM and over 150 nM, respectively.

For the compound `C[C@H]1C[C@@H](n2ccnc2)CN(c2ccc(C#N)c3ncccc23)C1` [Example 158, 5-[(3R,5S)-3-(1H-imidazol-1-yl)-5-methylpiperidin-1-yl]quinoline-8-carbonitrile], the IC50 is under 75 nM at TLR8 and over 150 nM at TLR7.

Consider `Cc1ccc(N2C[C@@H](C)C[C@@H](n3ccnc3)C2)c2cccnc12` [Example 159, 5-[(3R,5S)-3-(1H-imidazol-1-yl)-5-methylpiperidin-1-yl]-8-methylquinoline], for which the IC50 on TLR8 is under 75 nM; at TLR7 it was over 150 nM.

For the compound `C[C@H]1C[C@@H](NC(=O)[C@H](O)CO)CN(c2ccc(C#N)c3nccnc23)C1` [Example 160, (R)—N-[(3R,5S)-1-(8-Cyano-quinoxalin-5-yl)-5-methyl-piperidin-3-yl]-2,3-dihydroxy-propionamide], the IC50 on TLR8 and at TLR7 was under 75 nM each time.

Turning to `C[C@H]1C[C@@H](NC(=O)[C@@H](O)C(C)(C)O)CN(c2ccc(C#N)c3nccnc23)C1` [Example 161, (S)—N-[(3R,5S)-1-(8-Cyano-quinoxalin-5-yl)-5-methyl-piperidin-3-yl]-2,3-dihydroxy-3-methyl-butyramide], the IC50 at TLR8 and at TLR7 was under 75 nM in each case.

For the compound `C[C@H]1C[C@@H](NC(=O)[C@H](O)C(C)(C)O)CN(c2ccc(C#N)c3nccnc23)C1` [Example 162, (R)—N-[(3R,5S)-1-(8-Cyano-quinoxalin-5-yl)-5-methyl-piperidin-3-yl]-2,3-dihydroxy-3-methyl-butyramide], the results for the IC50 at TLR8 and at TLR7 were over 150 nM and 75 to 150 nM, respectively.

On to `Cc1ncc(N2C[C@@H](C)C[C@@H](NC(=O)CC3C4CC3CN(C)C4)C2)c2cccnc12` (stereo partly drawn) [Example 165, 2-(3-Methyl-3-aza-bicyclo[3.1.1]hept-6-yl)-N-[(3R,5S)-5-methyl-1-(8-methyl-naphthyridin-5-yl)-piperidin-3-yl]-acetamide], for which the IC50 at TLR8 and on TLR7 was under 75 nM each time.

In the case of `C[C@H]1C[C@@H](NC(=O)CCN)CN(c2ccc(C(F)(F)F)c3ncccc23)C1` [Example 166, 3-Amino-N-[(3R,5S)-5-methyl-1-(8-trifluoromethyl-quinolin-5-yl)-piperidin-3-yl]-propionamide], the IC50 on TLR8 is under 75 nM; at TLR7, 75 to 150 nM.

On to `C[C@H]1C[C@@H](NC(=O)[C@H](N)CO)CN(c2ccc(C(F)(F)F)c3ncccc23)C1` [Example 167], for which the IC50 at TLR8 and on TLR7 was under 75 nM throughout.

Take `CN[C@@H](CO)C(=O)N[C@@H]1C[C@H](C)CN(c2ccc(C(F)(F)F)c3ncccc23)C1` [Example 168, (S)-3-Hydroxy-2-methylamino-N-[(3R,5S)-5-methyl-1-(8-trifluoromethyl-quinolin-5-yl)-piperidin-3-yl]-propionamide]: the IC50 on TLR8 was 75 to 150 nM; at TLR7, over 150 nM.

In the case of `C[C@H]1C[C@@H](NC(=O)[C@@H](N)[C@@H](C)O)CN(c2ccc(C(F)(F)F)c3ncccc23)C1` [Example 169, (2S,3R)-2-Amino-3-hydroxy-N-[(3R,5S)-5-methyl-1-(8-trifluoromethyl-quinolin-5-yl)-piperidin-3-yl]-butyramide], the IC50 at TLR8 and on TLR7 was under 75 nM throughout.

Take `C[C@H]1C[C@@H](NC(=O)[C@@H](N)C(C)(C)O)CN(c2ccc(C(F)(F)F)c3ncccc23)C1` [Example 170, (S)-2-Amino-3-hydroxy-3-methyl-N-[(3R,5S)-5-methyl-1-(8-trifluoromethyl-quinolin-5-yl)-piperidin-3-yl]-butyramide]: the IC50 at TLR8 was under 75 nM; at TLR7 it was 75 to 150 nM.

Regarding `C[C@H](N)C(=O)N[C@@H]1C[C@H](C(F)(F)F)CN(c2ccc(C(F)(F)F)c3ncccc23)C1` [Example 171, (S)-2-Amino-N-[(3R,5S)-5-trifluoromethyl-1-(8-trifluoromethyl-quinolin-5-yl)-piperidin-3-yl]-propionamide], the IC50 on TLR8 and on TLR7 was under 75 nM each time.

`N[C@H](CO)C(=O)N[C@@H]1C[C@H](C(F)(F)F)CN(c2ccc(C(F)(F)F)c3ncccc23)C1` [Example 172, (R)-2-Amino-3-hydroxy-N-[(3R,5S)-5-trifluoromethyl-1-(8-trifluoromethyl-quinolin-5-yl)-piperidin-3-yl]-propionamide]: the IC50 is over 150 nM at TLR8 and 75 to 150 nM at TLR7.
